Reference: patent US20140336218A1, “ARFORMOTEROL AND TIOTROPIUM COMPOSITIONS AND METHODS FOR USE” (priority 2008, published 2014)

Experiments:
[1] = tested on: COPD patients; experiment: Spirometry (FEV1, FVC) in 2-week randomized, double dummy, parallel group clinical trial; type: in vivo, human
Procedure: (§1) This was a 2-week, prospective, multi-center (34 sites), randomized, modified blind, double dummy, parallel group study designed to evaluate the efficacy and safety of the combination of arformoterol 15 μg BID and tiotropium 18 μg QD (dosed sequentially) versus the individual mono-therapies in the treatment of COPD patients. The study was conducted according to the principles established by the Declaration of Helsinki (see, e.g., World Medical Association Declaration of Helsinki. Recommendations guiding physicians in biomedical research involving human subjects. JAMA 1997; 277:925-926.). Appropriate Institutional Review boards approved the protocol and written informed consent was obtained from the patients.
All patients had non-asthmatic COPD (including emphysema and/or chronic bronchitis). […] They also were required to have a pre-bronchodilator baseline pulmonary function of FEV1>0.7 L, FEV1/FVC ratio of ≦70%, and FEV1≦65% predicted. Patients were excluded if they had life-threatening or unstable respiratory status within 30 days of the screening visit. Patients who changed their prescribed dose or type of COPD medication within 14 days prior to screening or who had ever used tiotropium bromide inhalation powder were excluded.
(§2) Eligible patients were randomized to receive one of three treatments for 14 days: nebulized arformoterol 15 μg (Brovana®, Sepracor Inc., Marlborough, Mass.) BID and placebo DPI QD, nebulized placebo BID and tiotropium 18 μg (Spriva® HandiHaler® Boehringer Ingelheim, Ridgefield, Conn.) DPI QD, or nebulized arformoterol 15 μg BID and tiotropium 18 μg DPI QD. The nebulized drug was administered first using the PARI LC Plus® nebulizer driven by the Duraneb 3000® compressor (Pari: Pari Respiratory Equipment Inc., Midlothian, Va.) at a flow rate of 3.3 L/minute followed (within 5 minutes) by the DPI administration (HandiHaler®). The tiotropium and placebo DPI capsules were identical in size and shape but differed in color.
(§3) At week 0 and week 2, medical event calendars and blood samples were collected and vital signs and heart measurements analyzed. At week 0, spirometry was performed pre-morning dose, immediately (within 5 minutes) and at 30 minutes, 1, 2, 4, 6, 8, 10, and 12 hours post-first dose. After the 12-hour pulmonary function test patients self-administered the evening dose of study medication. At week 2, serial spirometry was also performed as at week 0, as well as immediately (within 5 minutes) following the evening dose (administered 12 hours after the morning dose) and 12.5, 13, 14, 16, 23, and 24 hours post-morning dose. Inspiratory capacity was evaluated pre-dose and at 2 hours post-morning dose at week 0, and pre-dose and 2, 11, 14, and 24 hours post-morning dose at week 2. All inspiratory capacity measurements were the mean of acceptable inspiratory capacity maneuvers, two of which were reproducible. Prior to an inspiratory capacity maneuver a patient had to have a stable expiratory level for about 10 breaths. Once the stable level was achieved, at the end of exhalation of a normal breath the patient was asked to make a steady and full inhalation at normal inspiratory flow rates until the lungs were completely full, and then to exhale at a normal rate.
(§4) All pulmonary function values used were the highest among the three acceptable maneuvers. The Investigator ensured that all spirometry was performed in accordance with the American Thoracic Society/European Respiratory Society Standardisation of Spirometry guidelines (see, e.g., Miller M R, Hankinson J, Brusasco V, Burgos F, Casaburi R, Coates A, et al. Standardisation of spirometry. Eur Respir J 2005; 26:319-338; herein incorporated in its entirety by reference). Centralized over-reading of spirometry and inspiratory capacity pulmonary function measures were used for quality control.

[2] = tested on: COPD patients; experiment: Inspiratory capacity in 2-week clinical trial; type: in vivo, human; settings: for Difference between combined therapy and mono-therapies in change in inspiratory capacity, LS mean: combined versus the mono-therapy; for Change in Inspiratory Capacity, mean (SD): week 2 from study baseline
Procedure: as §1, §2, §3, §4
The study was designed to detect a mean treatment difference of time normalized FEV1AUC over 24 hours (FEV1AUC0-24) (the primary endpoint) of 0.075 L with a standard deviation of 0.016 L when comparing combined therapy with mono-therapy, using a two-sided 5% significance level, following 2-weeks of dosing for the primary comparison with 80% power. All efficacy analyses were performed on the ITT population. All statistical testing was 2-tailed and conducted at the 5% significance level, unless otherwise indicated.

[3] = tested on: COPD patients; experiment: Adverse events in 2-week clinical trial
Procedure: as §1, §2
Descriptive statistics were calculated by treatment for baseline characteristics and each efficacy parameter. Adverse events were summarized using counts and percentages. All adverse events were coded using MedDRA (Medical Dictionary for Regulatory Activities (see, e.g., MedDRA and MSSO. The medical dictionary for regulatory activities 2008). A COPD exacerbation was pre-defined as an increase in symptoms that necessitated any change in baseline medication other than bronchodilators (e.g. anti-inflammatory agents, antibiotics, supplemental oxygen therapy, etc.) or caused the patient to require additional medical attention (hospitalization, emergency room visit, etc.).

[4] = ITT, change from baseline at week 2
[5] = ITT, week 2, combined therapy versus the mono-therapy
[6] = ITT, week 2, trough = 24 hour time point after morning dose
[7] = baseline percent predicted FEV1 <50%, week 2, combined versus the mono-therapy
[8] = baseline percent predicted FEV1 <50%, week 2 from study baseline
[9] = baseline percent predicted FEV1 ≧50%, week 2, combined versus the mono-therapy
[10] = baseline percent predicted FEV1 ≧50%, week 2 from study baseline

Compound: COc1ccc(C[C@@H](C)NC[C@H](O)c2ccc(O)c(NC=O)c2)cc1 [Arformoterol]
- mean FEV1 improvement 2-hours after the evening dose ([1]; 2 hours after evening dose): ~182 mL
- mean FEV1 improvement 2-hours after the morning dose ([1]; 2 hours after morning dose): approximately 213 mL
- Peak Change in FEV1 over 12 hours, mean (SD) [1, 4]: 0.27 (0.21) L
- Peak change in FVC over 12 hours, mean (SD) [1, 4]: 0.48 (0.37) L
- Change in FEV1AUC0-24, mean (SD) ([1]; ITT, change from baseline at week 2, time normalized): 0.10 (0.21) L
- Difference between combined therapy and mono-therapies in change in FEV1AUC0-24, LS mean [1, 5]: 0.12 L
- Difference between combined therapy and mono-therapies in change in trough FEV1, LS mean [1, 5]: 0.07 L
- Difference between combined therapy and mono-therapies in peak change in FEV1 over 12 hours, LS mean [1, 5]: 0.11 L
- Difference between combined therapy and mono-therapies in peak change in FVC over 12 hours, LS mean [1, 5]: 0.12 L
- Change in trough FEV1, mean (SD) [1, 6]: 0.09 (0.23) L
- Difference between combined therapy and mono-therapies in change in FEV1AUC0-24, LS mean [1, 7]: 0.11 L
- Difference between combined therapy and mono-therapies in peak change in FEV1 over 12 hours, LS mean [1, 7]: 0.11 L
- Difference between combined therapy and mono-therapies in peak change in FVC over 12 hours, LS mean [1, 7]: 0.15 L
- Difference between combined therapy and mono-therapies in trough FEV1, LS mean [1, 7]: 0.08 L
- Peak Change in FEV1 over 12 hours, mean (SD) [1, 8]: 0.31 (0.23) L
- Peak change in FVC over 12 hours, mean (SD) [1, 8]: 0.56 (0.41) L
- Trough FEV1 (change in FEV1 at 24 hours post-dose), mean (SD) [1, 8]: 0.13 (0.23) L
- Change in FEV1AUC0-24, mean (SD) ([1]; baseline percent predicted FEV1 <50%, week 2 from study baseline (pre-dose week 0)): 0.15 (0.22) L
- Difference between combined therapy and mono-therapies in change in FEV1AUC0-24, LS mean [1, 9]: 0.14 L
- Difference between combined therapy and mono-therapies in peak change in FEV1 over 12 hours, LS mean [1, 9]: 0.10 L
- Difference between combined therapy and mono-therapies in peak change in FVC over 12 hours, LS mean [1, 9]: 0.08 L
- Difference between combined therapy and mono-therapies in trough FEV1, LS mean [1, 9]: 0.05 L
- Peak Change in FEV1 over 12 hours, mean (SD) [1, 10]: 0.22 (0.17) L
- Peak change in FVC over 12 hours, mean (SD) [1, 10]: 0.34 (0.25) L
- Trough FEV1 (change in FEV1 at 24 hours post-dose), mean (SD) [1, 10]: 0.02 (0.21) L
- Change in FEV1AUC0-24, mean (SD) ([1]; baseline percent predicted FEV1 ≧50%, week 2 from study baseline (pre-dose week 0)): 0.03 (0.19) L
- mean improvement in peak FVC ([1]; from baseline after 2 weeks of treatment): 48 mL
- LS mean (±SE) peak improvement in FEV1 from visit pre-dose ([1]; from visit pre-dose): 0.19 L
- Mean (SD) inspiratory capacity improvement from baseline ([2]; 2-hours post-dosing): 0.20 L
- Difference in trough FEV1 between combined therapy and mono-therapies, LS mean ([2]; ITT, week 2, printed below the trough inspiratory capacity line, combined therapy versus the mono-therapy): 0.07 L
- Change in trough inspiratory capacity, mean (SD) [2, 6]: 0.07 (0.30) L
- Difference between combined therapy and mono-therapies in change in inspiratory capacity, LS mean ([2]; baseline percent predicted FEV1 <50%, week 2): 0.08 L
- Change in Inspiratory Capacity, mean (SD) ([2]; baseline percent predicted FEV1 <50%): 0.12 (0.31) L
- Difference between combined therapy and mono-therapies in change in inspiratory capacity, LS mean ([2]; baseline percent predicted FEV1 ≧50%, week 2): 0.06 L
- Change in Inspiratory Capacity, mean (SD) ([2]; baseline percent predicted FEV1 ≧50%): −0.01 (0.27) L
- Any adverse event, n (%) ([3]; ITT, 2 weeks of treatment): 19 (25.0) n (%)
- COPD exacerbations ([3]; ITT, 2 weeks of treatment): 3 (3.9) n (%)
- Discontinued due to adverse events, n (%) ([3]; ITT, 2 weeks of treatment): 2 (2.6) n (%)
- Overall cardiovascular adverse events, n (%) ([3]; ITT, 2 weeks of treatment): 2 (2.6) n (%)
- Serious adverse events, n (%) ([3]; ITT, 2 weeks of treatment): 1 (1.3) n (%)
- patients reporting a serious adverse event ([3]; small intestinal obstruction): one
